From patent publication US7695923B2, “CFTR polypeptides methods to overcome biosynthetic misprocessing” (Mayo Foundation for Medical Education and Research, priority 1999, dated 2010)
“Also recorded” adds a separate entry of the source.

Columns and labels:
BHK cells [1] = assay: 35S-methionine pulse chase of CFTR maturation; type: cell-based, Baby hamster; conditions: for radioactivity of pulse-labeled immature band present in mature band (conversion of precursor to product): after 4 h of chase, electronic autoradiography; for maturation at the end of the pulse: end of the pulse (0 min); for conversion of precursor to mature endoH resistant form during chase: pulse chase
Protocol: Pulse chase studies were performed to determine the rate at which maturation occurred in the arginine-framed triplet substituted wild-type and ΔF508 CFTR polypeptides (FIG. 2). […] Cells were lysed at the end of the labeling period (0 chase time) or were further incubated in complete medium containing 5% fetal bovine serum and 1 mM methionine for the indicated times (chase). Cells were collected and lysed with the NP40 lysis buffer described above and centrifuged at 15,000×g for 15 min at 4° C. to obtain a soluble supernatant which was incubated overnight with the M3A7 primary antibody. Protein G-agarose (Gibco-BRL) was then used to remove the complexes formed which were washed four times with RIPA buffer, dissolved in electrophoresis sample buffer, and subsequently fractionated on SDS-7% acrylamide gels. Following fractionation, the gels were fixed in 30% methanol and 10% acetic acid, equilibrated in 1M sodium salicylate and dried for fluorography. Electronic autoradiography was performed with a Packard Instant Imager. […]

BHK cells [2] = assay: Indirect immunofluorescence localization of CFTR with M3A7; type: cell-based, Baby hamster; conditions: M3A7 staining, permeabilized cells
Protocol: Immunofluorescence microscopy in cells expressing ΔF508 CFTR was performed using the highly specific monoclonal antibody, M3A7 (Kartner et al., 1992, supra). Briefly, transformed cells were grown on coverslips, fixed in 70% cold methanol at −20° C. for 10 minutes, blocked using 1% BSA and 5% normal rabbit serum in PBS and were permeabilized by incubating in PBS+0.1% saponin for 1 h at 4° C. CFTR was detected by incubation with 10 μg/ml of M3A7 primary antibody for 60 min at room temperature. Rhodamine linked rabbit anti-mouse secondary antibody (DAKO) was diluted 1:50 in the same blocking solution for a further 1 h incubation. Photomicrographs were made using a Diagnostic Instruments Spot Cam digital camera on a Nikon Microphot-FXA microscope.

CFTR chloride channels [3] = assay: Single CFTR Cl- channel recording in planar lipid bilayers; type: biochemical, human; conditions: for Conductance: 300 mM Tris-HCl; for Conductance / Long mean closed time τc2 / Mean open time τ0 / Short mean closed time τc1: -75 mV, 2 mM MgATP; for open probability: 25° C.
Protocol: (§1) To further characterize the Cl^− channel activity, membrane vesicles were isolated from cells expressing wild-type, wild-type/4RK and ΔF508/4RK CFTR, fused with planar lipid bilayers and single channels were recorded (Aleksandrov, A. A., and Riordan, J. R. (1998) FEBS Lett. 431:97-101). Vesicles were prepared and phosphorylated with PKA as described previously (Aleksandrov and Riordan, 1998, supra). Briefly, planar lipid bilayers were painted onto a 0.2 mm hole drilled in a Teflon cup using a phospholipid solution in n-decane containing a 2:1 mixture of 1-palmitoyl-2-oleoyl-sn-glycero-3-phosphoethanolamine and 1-palmitoyl-2-oleoyl-sn-glycero-3-phosphoserine (20 mg/ml). The lipid bilayer separated 1.0 ml of solution in the Teflon cup (cis-side) from 4.0 ml of solution in an outer glass chamber (trans-side). Both chambers were magnetically stirred and thermostated. Heating and temperature control were established using a Temperature Control System TC2BIP (Cell MicroControls). Electrical contact with the solutions was provided by Ag/AgCl electrodes through agar bridges filled with 0.5 M KCl. The membrane potential difference was measured as the difference between trans and cis side potentials. The trans side was grounded and electrical measurements of the single channel current were performed under voltage clamp conditions using an Axopatch 200B (Axon Instruments) amplifier. The output signal was filtered with an 8-pole low pass Bessel Filter LPBF-48DG (NPI Electronic GmbH) with cut off frequency of 50 Hz and recorded on magnetic tape using a VR-10B (Instrutech Corp.) digital data recorded on a Sony SLV-440 VCR. For data analysis, the signal was digitized (Digidata 1200; Axon Instruments) with a sampling rate of 500 Hz and analyzed using pCLAMP 6.0 (Axon Instruments) software. Origin 4.0 (Microcal) software was used to fit all points histograms by multi-peak Gaussians. Membrane vesicles were prephosphorylated with PKA and added as a concentrated stock solution to the cis side to obtain a final protein concentration of 10-15 μg/ml. Measurements were made in symmetrical salts solutions containing, in mM: 300 Tris-HCl, 2 MgCl, 1 EGTA, pH=7.2, at a membrane potential of −75 mV. MgATP (2 mM) was added to the cis side only. Under these conditions any cationic channels present in the membrane vesicles are invisible and CFTR chloride channels appeared only after fusion of vesicles with an inside out orientation. Conductances for wild-type, wild-type/4RK and ΔF508/4RK were 10.7, 10.8, and 10.7 pS, respectively. Mean open times τ0 were 230, 1400, and 700 msec respectively. Short mean closed times τc1 were 10 msec in each case. Long mean closed times τc2 were 680, 2000, and 2800 msec, respectively. Conductance as a function of Cl^− concentration and temperature as well as anion selectivity of the CFTR ion channel were tested in control experiments showing good agreement with published data (Tabcharani, J. A et al. (1997) J. Gen. Physiol. 110:341-54).

BHK cells [4] = assay: Western blot of BHK cell extracts with M3A7 antibody, with endoglycosidase H digestion; type: cell-based, Baby hamster; conditions: ΔF508 CFTR background; for mature bands of lower mobility on Western blot: steady state, BHK cell extracts
Protocol: Baby hamster kidney cells (BHK) cells grown at 37° C. in 5% CO2 were employed as hosts for CFTR expression as described previously (Loo et al. (1998) EMBO J. 17:6879-6887; and Seibert, F. S et al. (1995) J. Biol. Chem. 270:2158-2162). Subconfluent BHK cells were transformed with the above wild-type or ΔF508 CFTR constructs using calcium phosphate precipitation (Chen, C., and Okayama, H. (1987) Mol. Cell. Biol. 7: 2745-2752). After growth in selective media containing 500 μM methotrexate, individual colonies were picked and amplified in the same selective media.
BHK cells were grown, collected and then lysed with 1% SDS; the DNA was sheared by cycling through a 22 gauge needle. Protein lysate (20 μg) from the sample were then subjected to SDS-PAGE on 7% polyacrylamide gels. Protein was electroblotted from the gel to nitrocellulose membrane and the membrane was probed with a mouse anti-CFTR monoclonal antibody, M3A7 (Kartner, N. et al. (1992) Nat. Genetics 1:321-7). Chemiluminescent detection was performed according to the manufacturer's recommendations (Pierce).
For endoglycosidase H treatment, cell lysates were diluted with 10 volumes of buffer (50 mM sodium acetate, pH 5.3, 0.5% Nonidet P-40, 1% β-mercaptoethanol plus a protease inhibitor mixture: 2 μg/ml aprotinin, 120 μg/ml benzamidine, […], 1 μg/ml leupepetin and 50 μg/ml pefabloc). This yielded a final SDS concentration of 0.1%. Samples were then incubated for 4 hr at 37° C. with 10 mU of endoglycosidase H (Boehringer Mannheim). The reactions were stopped by addition of 4 volumes of cold ethanol (−20° C.) to precipitate the proteins. Precipitated proteins were then resuspended in gel loading dye and subjected to SDS-PAGE and immunoblotting as above.

BHK cells [5] = assay: cAMP stimulated 36Cl- efflux from CFTR expressing cells; type: cell-based, Baby hamster; conditions: stimulation with IBMX, Forskolin, dibutyryl cyclic AMP
Protocol: Wild-type and ΔF508 CFTR expressing cells with each of the individual R[…]K substitutions, or all four lysine substitutions were grown to confluence in six well culture dishes. The cells were washed with a modified Ringer's buffer solution (136 mM NaNO3, 3 mM KNO3, 2 mM Ca(NO3)2, 2 mM Mg(NO3)2, 10 mM glucose and 20 mM HEPES, pH 7.4) and loaded for 60 min at room temperature with the same buffer supplemented with 1 μCi Na^36Cl (Amersham) in a volume of 0.5 ml per well. Wells were then washed three times at one min intervals. Samples (0.5 ml) were then collected at 1 minute intervals for scintillation counting with stimulation occurring at time 0 by adding buffer containing 1 mM IBMX, 10 μM Forskolin and 100 μM dibutyryl cyclic AMP. The 0.5 ml samples were collected into 24 well Top Count plates (Packard) and 1 ml of Microcint 40 scintillation cocktail (Packard) was added. ^36Cl^− radioactivity was determined in a Packard Top Count scintillation counter.

BHK cells [6] = assay: Cell surface biotinylation of CFTR on intact cell monolayers; type: cell-based, Baby hamster
Protocol: For cell surface biotinylation studies, cells grown to about 90% confluency were treated with 2 mM sodium butyrate for 18 h to augment CFTR expression. Dishes of cells were then placed on ice in a cold room for 30 minutes and all subsequent steps were performed. Cells washed with PBS containing 0.1 mM CaCl2 and 1.0 mM MgCl2, were labeled using 3 ml of 1 mg/ml EZ-Link Sulfo-NHS-SS-biotin (Pierce) in PBS, pH 8.0 for 30 minutes. Following washes in PBS+1% BSA and PBS, cells were incubated for 30 minutes in NP40 lysis buffer (0.09% NP40, 150 mM NaCl, 10 mM NH4MoO4, 50 mM Tris-HCl, pH 7.4), scraped and transferred to microfuge tubes. Insoluble materials were removed by centrifugation. Biotinylated proteins were then precipitated by incubation overnight with 50 μl of packed immobilized streptavidin beads (Pierce). Beads were washed with RIPA buffer (0.1% SDS, 1% DOC, 1% Triton X-100, 150 mM NaCl, 50 mM Tris-Hcl, pH 7.4) and proteins eluted with gel sample buffer for electrophoresis and Western blotting with M3A7 as detailed above.

CFTR chloride channels [7] = target: T1, CFTR chloride channels (Homo sapiens, UniProt P13569, DEL508-508/V470M); assay: Single CFTR Cl- channel recording in planar lipid bilayers; type: biochemical; conditions: vesicles from BHK cells
T1 construct: These five fragments were ligated together to generate full length CFTR cDNA in pNUT; expressed in transfected cells; host or cells: BHK (baby hamster kidney) cells, stably transfected with pNUT-CFTR constructs; membrane vesicles fused with planar lipid bilayers
Protocol: as §1

T1 sequence (P13569 with tags, fused parts or gaps V470M/DEL508-508): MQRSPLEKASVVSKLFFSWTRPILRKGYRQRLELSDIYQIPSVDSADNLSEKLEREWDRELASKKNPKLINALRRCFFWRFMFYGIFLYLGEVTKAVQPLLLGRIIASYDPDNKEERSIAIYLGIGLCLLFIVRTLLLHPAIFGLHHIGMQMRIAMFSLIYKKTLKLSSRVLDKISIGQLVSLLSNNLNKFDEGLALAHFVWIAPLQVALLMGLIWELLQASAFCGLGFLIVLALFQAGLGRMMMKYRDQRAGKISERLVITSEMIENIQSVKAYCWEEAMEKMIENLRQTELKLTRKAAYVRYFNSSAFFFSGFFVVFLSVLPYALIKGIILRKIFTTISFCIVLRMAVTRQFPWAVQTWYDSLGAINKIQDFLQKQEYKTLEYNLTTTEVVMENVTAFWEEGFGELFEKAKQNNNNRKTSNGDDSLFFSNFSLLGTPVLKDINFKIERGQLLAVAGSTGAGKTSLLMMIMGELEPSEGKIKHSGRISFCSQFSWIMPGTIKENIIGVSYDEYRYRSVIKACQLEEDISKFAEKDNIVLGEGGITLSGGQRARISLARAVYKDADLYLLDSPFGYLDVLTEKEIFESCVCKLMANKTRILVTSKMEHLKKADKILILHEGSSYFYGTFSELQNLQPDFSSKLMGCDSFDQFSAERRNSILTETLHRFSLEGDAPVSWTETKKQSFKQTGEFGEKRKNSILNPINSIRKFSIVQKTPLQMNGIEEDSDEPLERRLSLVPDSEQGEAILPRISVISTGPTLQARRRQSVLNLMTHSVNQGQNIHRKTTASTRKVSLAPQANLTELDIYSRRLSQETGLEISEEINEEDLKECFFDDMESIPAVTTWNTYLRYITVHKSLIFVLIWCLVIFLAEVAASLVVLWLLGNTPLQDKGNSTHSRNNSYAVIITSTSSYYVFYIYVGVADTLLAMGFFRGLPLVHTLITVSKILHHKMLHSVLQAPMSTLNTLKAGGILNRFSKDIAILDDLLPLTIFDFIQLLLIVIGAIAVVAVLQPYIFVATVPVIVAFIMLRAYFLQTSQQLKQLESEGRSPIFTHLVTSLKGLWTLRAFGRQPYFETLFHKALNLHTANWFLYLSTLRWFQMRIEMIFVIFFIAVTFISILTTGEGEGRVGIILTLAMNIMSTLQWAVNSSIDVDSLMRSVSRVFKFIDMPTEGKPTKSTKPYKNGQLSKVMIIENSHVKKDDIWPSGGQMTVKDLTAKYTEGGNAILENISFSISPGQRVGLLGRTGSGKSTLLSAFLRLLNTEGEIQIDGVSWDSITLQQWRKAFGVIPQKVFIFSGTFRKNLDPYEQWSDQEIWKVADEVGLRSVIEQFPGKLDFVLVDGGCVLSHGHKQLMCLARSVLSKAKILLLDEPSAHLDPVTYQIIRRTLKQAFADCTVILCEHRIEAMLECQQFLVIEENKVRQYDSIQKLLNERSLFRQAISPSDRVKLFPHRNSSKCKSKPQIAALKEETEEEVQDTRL

Substance	conversion of precursor to mature endoH resistant form during chase (BHK cells [1])	CFTR localization by immunofluorescence (BHK cells [2])	Conductance (CFTR chloride channels [3]) [pS]	Long mean closed time τc2 (CFTR chloride channels [3]) [ms]	Mean open time τ0 (CFTR chloride channels [3]) [ms]	Short mean closed time τc1 (CFTR chloride channels [3]) [ms]	cAMP stimulated 36Cl- efflux rate (BHK cells [5])	further results
wild-type CFTR: full-length human CFTR expressed from pNUT vector in BHK cells [reference compound]	begins within an hour	strong uniform staining of mature CFTR over the entire cell surface	10.7	680	230	10	–	radioactivity of pulse-labeled immature band present in mature band (conversion of precursor to product) (BHK cells [1]): ~30%; maturation at the end of the pulse (BHK cells [1]): no maturation; open probability (CFTR chloride channels [3]): ~0.25
ΔF508/4RK: ΔF508 CFTR having all four arginines (29, 516, 555, 766) substituted with lysine	readily apparent	extension of the staining more peripherally	10.7	2800	700	10	more than half as rapid as those from cells expressing wild-type CFTR	endoglycosidase H sensitivity of the large bands (BHK cells [4]): Endoglycosidase-H insensitivity; mature bands of lower mobility on Western blot (BHK cells [4]): bands of lower mobility are produced; radioactivity of pulse-labeled immature band present in mature band (conversion of precursor to product) (BHK cells [1]): approximately 10%; accessibility of mature band to surface biotinylation (BHK cells [6]): accessible to the impermeant amino reactive biotinylation reagent
R766K: ΔF508 CFTR in which arginine 766 has been substituted with lysine	–	–	–	–	–	–	No detectable increase in efflux rate	–
R555K: ΔF508 CFTR in which arginine 555 has been substituted with lysine	–	–	–	–	–	–	No detectable increase in efflux rate	–
wild-type/4RK: wild-type CFTR in which four arginines (R29K, R516K, R555K, R766K) have been substituted with lysine	more rapid maturation	–	10.8	2000	1400	10	–	maturation at the end of the pulse (BHK cells [1]): already evident; open probability (CFTR chloride channels [3]): ~0.61
ΔF508/R29K: ΔF508 CFTR in which arginine 29 has been substituted with lysine	–	–	–	–	–	–	low rates of ^36Cl^− efflux occurred at delayed times after stimulation	endoglycosidase H sensitivity of the large bands (BHK cells [4]): Endoglycosidase-H insensitivity; mature bands of lower mobility on Western blot (BHK cells [4]): bands of lower mobility are produced
ΔF508 CFTR: export-incompetent cystic fibrosis causing CFTR mutant lacking phenylalanine 508	no conversion; also recorded: fails to mature even after two hours	Perinuclear staining only	–	–	–	–	No detectable increase in efflux rate	detection of CFTR-like single channels (CFTR chloride channels [7]): never been able to detect CFTR-like single channels
R516K: ΔF508 CFTR in which arginine 516 has been substituted with lysine	–	–	–	–	–	–	No detectable increase in efflux rate	–
